Measurements from PubChem BioAssay (NCI).
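Protocol summary: plate cells (96-well), add compound at 5 concentrations, incubate 48 h, interpolate endpoints linearly. Abbreviation: GI50, concentration required for 50% inhibition of growth. The concentration for full growth arrest is given as TGI.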

How the values were obtained:
Assay in all cases: NCI tumour cell line growth inhibition, 48 h
[1] = tested on: 786-0 renal
[2] = tested on: A498 renal
[3] = tested on: A549 NSCLC
[4] = tested on: ACHN renal
[5] = tested on: BT-549 breast
[6] = tested on: CAKI-1 renal
[7] = tested on: CCRF-CEM leukemia
[8] = tested on: COLO 205 colon
[9] = tested on: DU-145 prostate
[10] = tested on: EKVX NSCLC
[11] = tested on: HCC-2998 colon
[12] = tested on: HCT-116 colon
[13] = tested on: HCT-15 colon
[14] = tested on: HL-60(TB) leukemia
[15] = tested on: HOP-62 NSCLC
[16] = tested on: HOP-92 NSCLC
[17] = tested on: HS 578T breast
[18] = tested on: HT29 colon
[19] = tested on: IGROV1 ovarian
[20] = tested on: K-562 leukemia
[21] = tested on: KM12 colon
[22] = tested on: LOX IMVI melanoma
[23] = tested on: M14 melanoma
[24] = tested on: MALME-3M melanoma
[25] = tested on: MCF7 breast
[26] = tested on: MDA-MB-231 breast
[27] = tested on: MDA-MB-435
[28] = tested on: MOLT-4 leukemia
[29] = tested on: NCI-H226 lung
[30] = tested on: NCI-H23 lung
[31] = tested on: NCI-H460 lung
[32] = tested on: NCI-H522 lung
[33] = tested on: NCI/ADR-RES ovarian
[34] = tested on: OVCAR-3 ovarian
[35] = tested on: OVCAR-4 ovarian
[36] = tested on: OVCAR-5 ovarian
[37] = tested on: OVCAR-8 ovarian
[38] = tested on: PC-3 prostate
[39] = tested on: RPMI-8226 leukemia
[40] = tested on: RXF 393 renal
[41] = tested on: SF-268 CNS
[42] = tested on: SF-295 CNS
[43] = tested on: SF-539 CNS
[44] = tested on: SK-MEL-2 melanoma
[45] = tested on: SK-MEL-28 melanoma
[46] = tested on: SK-MEL-5 melanoma
[47] = tested on: SK-OV-3 ovarian
[48] = tested on: SN12C renal
[49] = tested on: SNB-19 CNS
[50] = tested on: SNB-75 CNS
[51] = tested on: SR leukemia
[52] = tested on: SW-620 colon
[53] = tested on: T-47D breast
[54] = tested on: TK-10 renal
[55] = tested on: U251 CNS
[56] = tested on: UACC-257 melanoma
[57] = tested on: UACC-62 melanoma
[58] = tested on: UO-31 renal

With `CC1CC[C@@]2(OC1)OC1C[C@H]3[C@@H]4CC=C5CC(OC6OC(CO)C(OC7OC(CO)C(O)C(OC8OCC(O)C(O)C8O)C7OC7OC(CO)C(O)C(O)C7O)C(O)C6O)CCC5(C)[C@H]4CCC3(C)C1[C@@H]2C` (stereo partly specified) the TGI [1] was 19.4 µM, the TGI [2] was 9.19 µM and the TGI [3] was 8.01 µM. The TGI [4] was 10.6 µM, the TGI [5] was 9.24 µM and the TGI [6] was 10.3 µM. It also gave a TGI [7] of 12.1 µM, a TGI [8] of 8.16 µM and a TGI [9] of 9.48 µM. It also gave a TGI [10] of 9.01 µM, a TGI [11] of 8.63 µM and a TGI [12] of 8.14 µM. For the same compound, the TGI [13] was over 25 µM, the TGI [14] was 9.35 µM and the TGI [15] was 9.32 µM. It also gave a TGI [16] of over 25 µM, a TGI [17] of 9.57 µM and a TGI [18] of 9.4 µM. The TGI [19] was 8.06 µM, the TGI [20] was 17.7 µM and the TGI [21] was 10.5 µM. For the same compound, the TGI [22] was 8.53 µM, the TGI [23] was 17.1 µM and the TGI [24] was over 25 µM. The TGI [25] was 14.6 µM, the TGI [26] was 9.29 µM and the TGI [27] was 13.4 µM. The TGI [28] was 19.8 µM, the TGI [29] was over 25 µM and the TGI [30] was 11.7 µM. For the same compound, the TGI [31] was 11.8 µM, the TGI [32] was 9.69 µM and the TGI [33] was 12.9 µM. It also gave a TGI [34] of 9.25 µM, a TGI [35] of 17.4 µM and a TGI [36] of over 25 µM. It also gave a TGI [37] of 8.95 µM, a TGI [38] of 7.45 µM and a TGI [39] of 18.4 µM. It also gave a TGI [40] of 9.43 µM, a TGI [41] of 9.45 µM and a TGI [42] of 21.2 µM. The TGI [43] was 7.37 µM, the TGI [44] was over 25 µM and the TGI [45] was over 25 µM. For the same compound, the TGI [46] was 8.43 µM, the TGI [47] was 20.7 µM and the TGI [48] was 8.27 µM. For the same compound, the TGI [49] was over 25 µM, the TGI [50] was 13.7 µM and the TGI [51] was 17.7 µM. It also gave a TGI [52] of 8.3 µM, a TGI [53] of 11.9 µM and a TGI [54] of 20.2 µM. The TGI [55] was 8.72 µM, the TGI [56] was 18 µM and the TGI [57] was over 25 µM.
Work on `COc1cc(Nc2c(C#N)cnc3cc(OCCCN4CCN(C)CC4)c(OC)cc23)c(Cl)cc1Cl` yielded a GI50 [1] of 2.09 µM, a TGI [1] of 9.93 µM and a GI50 [2] of 0.586 µM. The TGI [2] was 2.22 µM, the GI50 [3] was 2.74 µM and the TGI [3] was 13.5 µM. The GI50 [4] was 0.317 µM, the TGI [4] was 9.7 µM and the GI50 [5] was 6.78 µM. For the same compound, the TGI [5] was 18.3 µM, the GI50 [6] was 0.482 µM and the TGI [6] was 5.13 µM. For the same compound, the GI50 [7] was 1.76 µM, the TGI [7] was 5.74 µM and the GI50 [8] was 1.6 µM. For the same compound, the TGI [8] was 3.03 µM, the GI50 [9] was 1.19 µM and the TGI [9] was 14.6 µM. The GI50 [11] was 3.08 µM, the TGI [11] was 9.21 µM and the GI50 [12] was 0.746 µM. It also gave a TGI [12] of 4.71 µM, a GI50 [13] of 1.21 µM and a TGI [13] of 11.8 µM. For the same compound, the GI50 [14] was 1.59 µM, the TGI [14] was 3.63 µM and the GI50 [15] was 4.69 µM. For the same compound, the TGI [15] was 17.6 µM, the GI50 [16] was 2.08 µM and the TGI [16] was 10.5 µM. For the same compound, the GI50 [17] was 1.6 µM, the TGI [17] was 26 µM and the GI50 [18] was 0.689 µM. For the same compound, the TGI [18] was 5.38 µM, the GI50 [19] was 0.279 µM and the TGI [19] was 3.09 µM. The GI50 [20] was 0.0211 µM, the TGI [20] was 3.82 µM and the GI50 [21] was 0.331 µM. It also gave a TGI [21] of 7.24 µM, a GI50 [22] of 1.15 µM and a TGI [22] of 2.75 µM. For the same compound, the GI50 [23] was 1.3 µM, the TGI [23] was 3.03 µM and the GI50 [24] was 1.83 µM. It also gave a TGI [24] of 3.67 µM, a GI50 [25] of 2.79 µM and a TGI [25] of 17.8 µM. For the same compound, the GI50 [26] was 2.76 µM, the TGI [26] was 7.14 µM and the GI50 [27] was 1.97 µM. The TGI [27] was 5.36 µM, the GI50 [28] was 1.91 µM and the TGI [28] was 7.38 µM. It also gave a GI50 [29] of 12.1 µM, a TGI [29] of 34.5 µM and a GI50 [30] of 4.55 µM. It also gave a TGI [30] of 17.7 µM, a GI50 [31] of 3.99 µM and a TGI [31] of 17.7 µM. It also gave a GI50 [32] of 0.393 µM, a TGI [32] of 6.36 µM and a GI50 [33] of 4.6 µM. It also gave a TGI [33] of 42.9 µM, a GI50 [34] of 2.78 µM and a TGI [34] of 14.4 µM. For the same compound, the GI50 [35] was 4.6 µM, the TGI [35] was 21 µM and the GI50 [36] was 1.19 µM. For the same compound, the TGI [36] was 16.2 µM, the GI50 [37] was 2.35 µM and the TGI [37] was 14.4 µM. For the same compound, the GI50 [38] was 5.02 µM, the TGI [38] was 16.7 µM and the GI50 [39] was 5.32 µM. The TGI [39] was 13.9 µM, the GI50 [40] was 0.85 µM and the TGI [40] was 6.02 µM. For the same compound, the GI50 [41] was 2.34 µM, the TGI [41] was 10.3 µM and the GI50 [42] was 7.55 µM. It also gave a TGI [42] of 21 µM, a GI50 [43] of 2.3 µM and a TGI [43] of 5.83 µM. The GI50 [44] was 2.97 µM, the TGI [44] was 8.67 µM and the GI50 [45] was 2.13 µM. The TGI [45] was 5.08 µM, the GI50 [46] was 2.09 µM and the TGI [46] was 5.71 µM. For the same compound, the GI50 [47] was 0.884 µM, the TGI [47] was 12.3 µM and the GI50 [48] was 0.308 µM. It also gave a TGI [48] of 14.4 µM, a GI50 [49] of 9.26 µM and a TGI [49] of 21.1 µM. The GI50 [50] was 0.707 µM, the TGI [50] was 8.38 µM and the GI50 [51] was 1.35 µM. For the same compound, the TGI [51] was 4.51 µM, the GI50 [52] was 3.26 µM and the TGI [52] was 11.4 µM. The GI50 [53] was 3.1 µM, the TGI [53] was 18.2 µM and the GI50 [54] was 0.469 µM. For the same compound, the TGI [54] was 11.3 µM, the GI50 [55] was 3.1 µM and the TGI [55] was 8.37 µM. It also gave a GI50 [56] of 1.76 µM, a TGI [56] of 3.46 µM and a GI50 [57] of 2.48 µM. The TGI [57] was 7.01 µM, the GI50 [58] was 0.687 µM and the TGI [58] was 7.75 µM.
